From US20190290620A1, “APPLICATIONS OF NOVEL THIAZOLE DERIVATIVE IN TREATING INFLAMMATORY BOWEL DISEASES” (EAST CHINA UNIVERSITY OF SCIENCE AND TECHNOLOGY, priority 2016, published 2019)
Marks after values point to notes of the source that are not given here.

Tested on: TNBS-induced ulcerative colitis model mice
Assay: TNBS-induced mice ulcerative colitis model
Assay type: in vivo, BALB/c male mice
Set-up: key to Scores of gross morphological damages: 0 = no adhesion/ulcer/inflammation, 4+ = severe ulcers (+1 per cm)
Details: for Score (body weight index according to the disease activity index, DAI): 0-4 points by weight decrease; for Score (body weight index according to the disease activity index, DAI) / Length of the colon / Weight of the colon / Histopathology scores / Scores of gross morphological damages / weight/length ratio (average) of colon: ig 7 days, sulfasalazine 500 mg/kg; for Score (body weight index according to the disease activity index, DAI) / Length of the colon / Weight of the colon / Histopathology scores / Scores of gross morphological damages / weight/length ratio (average) of colon / Ratio of weight loss: compound 20 mg/kg; for Length of the colon / Weight of the colon: 24 hours after last administration; for Histopathology scores: H&E colon sections, epithelial cells and inflammatory cell infiltration points; for Scores of gross morphological damages: colon adhesion, ulceration, inflammation points; for weight/length ratio (average) of colon: colon weight (g) / length (cm); for Ratio of weight loss: ig daily for 7 days from day of modeling, positive drug sulfasalazine 500 mg/kg, 10 mice per group; for diarrhea of the mice (general condition): TNBS-mediated UC model BALB/c mice, Compound 16 in three different dosage groups, sulfasalazine control group; for extent of ulcer lesions of colon and visceral adhesions: compound 312 at 5 mg/kg, 20 mg/kg, 50 mg/kg and positive drugs, vs model group; for histopathology of colon (HE staining, mucosal integrity / lesions): compared with the model group
Method: BALB/c male mice (each 18-22 g) of SPF level were purchased from Shanghai Slack Laboratory Animal Co., Ltd. and were used in experiments after adaptive feeding for 7 days.
BALB/c male mice were kept in an animal cage (daylight and darkness of 12 hours, respectively) at a temperature of 20-25° C. and relative humidity of 50-60%, free access to food and water.
Mice were randomly divided into normal control group, trinitrobenzenesulfonic acid (TNBS) model group, drug treatment group and positive drug control group (sulfasalazine 500 mg/kg).
All of the mice in model group and administration group were shaved in the abdomen (area 2×2 cm) and sensitized with 1% TNBS (dissolved in 50% ethanol). On the 7th day, the mice were fasted, but not water. After 24 hours, the mice were anesthetized through intraperitoneal injection of 0.1 ml of 10% chloral hydrate and 2% TNBS was used for lavation to establish a mouse model of ulcerative colitis. A gavage needle for rat was inserted into the colon of a mouse, the tip of the needle was about 3˜3.5 cm away from the anus, and 0.1 ml of modeling solution (5% TNBS and deionized water were mixed at a volume ratio of 4:1, and the obtained solution was mixed with absolute ethanol at a volume ratio of 1:1, so as to obtain the modeling solution) was injected. The mice were put back into the cage and wake up naturally. The mice in the normal control group were injected with 0.12 ml of solvent (50% ethanol solution) by the same manner.
Administration was started on the day of modeling (using 0.5% sodium carboxymethylcellulose, CMC-Na) for 7 consecutive days.
At 24 hours after the last administration, the mice were sacrificed by cervical dislocation, the peritoneum was cut open, and the whole colon was taken. The intestine was cut longitudinally along the mesenteric margin, rinsed with ice physiological saline, placed on ice, and the pathological changes of the colon were observed. The fat and mesentery were removed, the water was blotted with filter paper, the weight of the colon was weighed and the length was measured. The colon was fixed in 4% formaldehyde for more than 24 hours, dehydrated, paraffin-embedded and H&E stained, and the pathological sections were observed.
The mice were observed and recorded daily for mental state, fur color, and activities. The mice was weighed daily and observed for the stool traits. The body weight index according to the disease activity index (DAI) is as follows:
After the colon of a mouse was removed, the weight of the colon was measured with a precision electronic balance, the length was measured with a vernier caliper, and the weight/length ratio of the colon was calculated.
The criteria for scores were: no adhesion, no ulcer, no inflammation, 0 points; mild adhesion, local congestion, no ulcer, 1 point; severe adhesion, 1 ulcer (area less than 1 cm), no obvious inflammation, 2 points; more than 1 ulcers (area less than 1 cm) with inflammation, 3 points; 2 severe ulcers (area greater than 1 cm) with inflammation, 4 points; and 1 point for each 1 cm increase in ulcer area.
Pathological changes of colon tissue were observed under light microscope, and the scores were recorded. The criteria for scores are as follows:
1) Epithelial cells: normal morphology, 0 points; loss of goblet cells, 1 point; large loss of goblet cells, 2 points; loss of crypt cells, 3 points; large loss of crypt cells, 4 points.
2) Infiltration of inflammatory cells: no infiltration, 0 points; infiltration in the basal layer of the crypt, 1 point; infiltration to the muscular layer of the mucosa, 2 points; infiltration to the muscular layer of the mucosa with mucosal thickening and obvious edema, 3 points; infiltration to the submucosal layer, 4 points.
Data were expressed as […] (mean±S.E.M.), data were analyzed using SPSS statistical software, and one-way ANOVA and Tukey's HSD post hoc test were used for comparison between groups. p<0.05 was considered statistically significant.

Row | SMILES | Score (body weight index according to the disease activity index, DAI) | Length of the colon [cm] | Weight of the colon [g] | Histopathology scores | Scores of gross morphological damages | weight/length ratio (average) of colon | Ratio of weight loss | diarrhea of the mice (general condition) (FIG. 2) | effect on colonic lesions, comparison of dosages (FIG. 3, 5 mg/kg) | extent of ulcer lesions of colon and visceral adhesions (FIG. 3) | histopathology of colon, comparison of dosages (FIG. 4, 5 mg/kg and 50 mg/kg vs 20 mg/kg) | histopathology of colon (HE staining, mucosal integrity / lesions) (FIG. 4) | death of mice (FIG. 2, on the 8th day of the experiment, model group mortality about 50%)
1 | CN(/N=C/c1cc(F)c(F)cc1C(=O)O)c1nc(-c2ccccc2Cl)cs1 [Compound 23] | 3 | 4.997 ± 0.476 | 0.153 ± 0.027 | 2.32 ± 0.58 | 2.02 ± 0.60 | 0.030# | 6.27 ± 2.76 |  |  |  |  |  | 
2 | Cc1sc(N/N=C/c2ccccc2C(=O)O)nc1-c1ccccc1 [Compound 17, (E)-5-methyl-4-phenyl-2-(2-carboxylbenzylidenehydrazino)thiazole] |  | 5.124 ± 0.332 | 0.159 ± 0.034 |  |  | 0.030# |  |  |  |  |  |  | 
3 | Cc1ccc(/C=N/Nc2nc(-c3ccccc3Cl)cs2)c(C(=O)O)c1 [Compound 9-1] |  | 5.985 ± 0.363 | 0.152 ± 0.023 | 3.94 ± 0.51 | 3.63 ± 0.71 | 0.025# |  |  |  |  |  |  | 
4 | Cc1sc(N/N=C/c2ccccc2C(=O)O)nc1-c1ccccc1Cl [Compound 15, (E)-5-methyl-4-(2-chlorophenyl)-2-(2-carboxylbenzylidenehydrazino)thiazole] |  | 5.546 ± 0.402 | 0.163 ± 0.023 |  |  | 0.029# |  |  |  |  |  |  | 
5 | O=C(O)c1ccccc1/C=N/Nc1nc(-c2cc(Cl)ccc2Cl)cs1 [Compound 55, (E)-2-((2-(4-(2,5-dichlorophenyl)thiazol-2-yl)hydrazono)methyl)benzoic Acid] | 1 | 5.675 ± 0.222 | 0.148 ± 0.033 | 1.68 ± 0.32 | 1.99 ± 0.52 | 0.026# | 2.74 ± 4.61 |  |  |  |  |  | 
6 | O=C(O)c1cc(C(F)(F)F)ccc1/C=N/Nc1nc(-c2ccccc2Cl)cs1 [Compound 8-1] | 1 |  |  |  |  |  | 3.72 ± 1.60 |  |  |  |  |  | 
7 | Cc1sc(N(C)/N=C/c2ccccc2C(=O)O)nc1-c1ccccc1 [Compound 12, (E)-5-methyl-4-phenyl-2-[11-methyl-2-(2-carboxybenzylidene)hydrazino]thiazole] | 1 | 5.075 ± 0.468 | 0.154 ± 0.012 |  |  | 0.030# | 2.33 ± 2.99 |  |  |  |  |  | 
8 | O=C(O)c1ccccc1/C=N/Nc1nc(-c2ccccc2Cl)cs1 [Compound 16, (E)-4-(2-chlorophenyl)-2-(2-carboxybenzylidenehydrazino)thiazole] | 1 |  |  | 2.54 ± 0.49 | 2.22 ± 0.54 |  | 3.55 ± 1.47 | relieved compared with the model group | best effect on colonic lesions | can improve the extent of ulcer lesions of colon and visceral adhesions | more effective than those at 20 mg/kg | mucosal integrity was improved to a greater extent | 
9 | Cc1ccc(/C=N/N(C)c2nc(-c3ccccc3Cl)cs2)c(C(=O)O)c1 [Compound 9, (E)-4-(2-chlorophenyl)-2-[1-methyl-2-(4-methyl-2-carboxybenzylidene)hydrazino]thiazole] | 1 |  |  |  |  |  | 3.29 ± 4.70 |  |  |  |  |  | 
10 | CCN(/N=C/c1ccccc1C(=O)O)c1nc(-c2ccccc2Cl)cs1 [Compound 2, (E)-4-(2-chlorophenyl)-2-[1-ethyl-2-(2-carboxybenzylidene)hydrazino]thiazole] | 1 |  |  | 3.10 ± 0.55 | 3.37 ± 0.60 |  | 1.22 ± 3.68 |  |  |  |  |  | 
11 | CN(/N=C/c1ccc(C(F)(F)F)cc1C(=O)O)c1nc(-c2ccccc2Cl)cs1 [Compound 8, (E)-4-(2-chlorophenyl)-2-[1-methyl-2-(4-trifluoromethyl-2-carboxybenzylidene)hydrazino]thiazole] | 1 | 6.005 ± 0.452 | 0.157 ± 0.027 | 1.59 ± 0.68 | 1.42 ± 0.78 | 0.026# | 1.07 ± 2.98 |  |  |  |  |  | 
12 | CN(/N=C/c1ccccc1C(=O)O)c1nc(-c2ccccc2)cs1 [Compound 20, (E)-4-phenyl-2-[1-methyl-2-(2-carboxybenzylidene)hydrazino]thiazole] |  |  |  | 3.65 ± 0.42 | 3.33 ± 0.59 |  |  |  |  |  |  |  | 
13 | O=C(O)c1c(F)cccc1/C=N/Nc1nc(-c2ccccc2Cl)cs1 [Compound 58, (E)-2-((2-(4-(2-chlorophenyl)thiazol-2-yl)hydrazono)methyl)-6-fluorobenzoic Acid] |  | 5.575 ± 0.392 | 0.162 ± 0.028 | 3.59 ± 0.61 | 4.32 ± 0.79 | 0.029# |  |  |  |  |  |  | 
14 | O=C(O)c1cc(/N=N/c2ccc(S(=O)(=O)Nc3ccccn3)cc2)ccc1O [sulfasalazine, reference compound] | 1 | 5.814 ± 0.465 | 0.145 ± 0.018 | 1.71 ± 0.69 | 0.81 ± 0.69 | 0.025# | 1.54 ± 3.72 | mild |  | can improve the extent of ulcer lesions of colon and visceral adhesions |  | largely reversed | only one mouse died
15 | CN(/N=C/c1ccccc1C(=O)O)c1nc(-c2cccc(Cl)c2)cs1 [Compound 21, (E)-4-(3-chlorophenyl)-2-[1-methyl-2-(2-carboxybenzylidene)hydrazino]thiazole] |  | 4.986 ± 0.452 | 0.158 ± 0.025 | 2.54 ± 0.62 | 2.31 ± 0.79 | 0.032# |  |  |  |  |  |  | 
16 | CN(/N=C/c1ccc(F)cc1C(=O)O)c1nc(-c2ccccc2Cl)cs1 [Compound 10, (E)-4-(2-chlorophenyl)-2-[1-methyl-2-(2-carboxyl-4-fluorobenzylidene)hydrazino]thiazole] | 1 | 6.321 ± 0.436 | 0.162 ± 0.045 | 2.09 ± 0.44 | 1.02 ± 0.41 | 0.026# | 1.92 ± 3.20 |  |  |  |  |  | 
